The record followed here is patent US20220323406A1, “METHODS AND COMPOSITIONS FOR DIFFERENTIATING STEM CELLS” (Massachusetts Institute of Technology, priority 2019, published 2022).

The test system of assay [1] is ENR+CD organoids (ISC to Paneth cell differentiation). The assay can be described thus: Primary screen: basal (non-stimulated) lysozyme secretion LYZ.NS, 2.5-D 384-well ENR+CD organoid differentiation. Format: cell-based, mouse. The note with it: primary screen. An excerpt:
(§1) High-throughput screening.

Assay [2] shares this test system. Nature of the assay: Primary screen: CCh-stimulated lysozyme secretion LYZ.S, 2.5-D 384-well ENR+CD organoid differentiation. Format: cell-based, mouse. The note with it: primary screen.
Text: as §1

Assay [3] has as its system ENR+CD organoids. The assay can be described thus: Primary screen: ATP (CellTiter-Glo 3D, CTG) cell number/viability, 2.5-D 384-well ENR+CD organoids.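 For all read-outs here: compounds given at plating and again on day 3 over a 6-day differentiation from ENR+CV stem-cell-enriched precursors, ATP measured on day 6, plate median as control.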 The note with it: for Dose.FC.CTG / Z.CTG (standard z score): primary screen. (In general: ATP-based viability assays read luminescence as a measure of living cells.)

Where a name gives a salt, the structure may show the parent alone.

In the case of `Cc1c(Cl)cccc1Nc1ccccc1C(=O)O` [Tolfenamic Acid], the Dose.FC.LYZ.NS in assay [1] (dose 0.08 uM) is given as 0.028 log2 fold change; in assay [1] (dose 0.40 uM) it was 0.023 log2 fold change; in assay [1] (dose 2.00 uM) it was 0.107 log2 fold change; in assay [1] (dose 10.00 uM) it was −0.039 log2 fold change. Moreover, the “Z.LYZ.NS (standard z score)” value in assay [1] (dose 0.08 uM) is 0.242; in assay [1] (dose 0.40 uM), 0.200; in assay [1] (dose 2.00 uM) it was 0.927; in assay [1] (dose 10.00 uM) it was −0.343. For the same compound, the Dose.FC.LYZ.S in assay [2] (dose 0.08 uM) is 0.118 log2 fold change; in assay [2] (dose 0.40 uM), 0.052 log2 fold change; in assay [2] (dose 2.00 uM) it was −0.023 log2 fold change; in assay [2] (dose 10.00 uM), −0.064 log2 fold change. For the same compound, the Dose.FC.CTG in assay [3] (dose 0.08 uM) is reported as 0.196 log2 fold change; in assay [3] (dose 0.40 uM) it was −0.003 log2 fold change; in assay [3] (dose 2.00 uM) it was −0.159 log2 fold change; in assay [3] (dose 10.00 uM), −0.115 log2 fold change.
On to `Cc1ccccc1C(=O)Nc1ccc(C(=O)N2CCCC(O)c3cc(Cl)ccc32)c(C)c1` (stereo not drawn) [Tolvaptan], for which the Dose.FC.LYZ.NS in assay [1] (dose 0.08 uM) is 0.049 log2 fold change; in assay [1] (dose 0.40 uM), −0.041 log2 fold change; in assay [1] (dose 2.00 uM) it was −0.023 log2 fold change; in assay [1] (dose 10.00 uM) it was −0.093 log2 fold change. The “Z.LYZ.NS (standard z score)” value in assay [1] (dose 0.08 uM) was 0.429; in assay [1] (dose 0.40 uM), −0.355; in assay [1] (dose 2.00 uM), −0.204; in assay [1] (dose 10.00 uM), −0.807. Besides, the Dose.FC.LYZ.S in assay [2] (dose 0.08 uM) is recorded as 0.086 log2 fold change; in assay [2] (dose 0.40 uM), 0.031 log2 fold change; in assay [2] (dose 2.00 uM), −0.048 log2 fold change; in assay [2] (dose 10.00 uM), −0.150 log2 fold change. Besides, the Dose.FC.CTG in assay [3] (dose 0.08 uM) is on record as 0.095 log2 fold change; in assay [3] (dose 0.40 uM) it was −0.008 log2 fold change; in assay [3] (dose 2.00 uM) it was −0.094 log2 fold change; in assay [3] (dose 10.00 uM) it was −0.104 log2 fold change.
For the compound `CCOC(=O)N1c2ccc(C(F)(F)F)cc2[C@@H](N(Cc2cc(C(F)(F)F)cc(C(F)(F)F)c2)C(=O)OC)C[C@H]1CC` [Torcetrapib], the Dose.FC.LYZ.NS in assay [1] (dose 0.08 uM) is on record as 0.114 log2 fold change; in assay [1] (dose 0.40 uM), −0.063 log2 fold change; in assay [1] (dose 2.00 uM), −0.136 log2 fold change; in assay [1] (dose 10.00 uM), −0.012 log2 fold change. In addition, the “Z.LYZ.NS (standard z score)” value in assay [1] (dose 0.08 uM) is 0.991; in assay [1] (dose 0.40 uM) it was −0.546; in assay [1] (dose 2.00 uM) it was −1.185; in assay [1] (dose 10.00 uM), −0.108. The Dose.FC.LYZ.S was 0.320 log2 fold change in assay [2] (dose 0.08 uM), 0.045 log2 fold change in assay [2] (dose 0.40 uM), −0.098 log2 fold change in assay [2] (dose 2.00 uM) and −0.056 log2 fold change in assay [2] (dose 10.00 uM). For the same compound, the Dose.FC.CTG in assay [3] (dose 0.08 uM) is 0.283 log2 fold change; in assay [3] (dose 0.40 uM) it was 0.061 log2 fold change; in assay [3] (dose 2.00 uM), −0.121 log2 fold change; in assay [3] (dose 10.00 uM), −0.151 log2 fold change.
In the case of `CN(C)CCOc1ccc(/C(=C(/CCCl)c2ccccc2)c2ccccc2)cc1` [Toremifene Citrate], the Dose.FC.LYZ.NS is 0.051 log2 fold change in assay [1] (dose 0.08 uM), 0.060 log2 fold change in assay [1] (dose 0.40 uM), 0.030 log2 fold change in assay [1] (dose 2.00 uM) and −0.198 log2 fold change in assay [1] (dose 10.00 uM). The “Z.LYZ.NS (standard z score)” value is 0.446 in assay [1] (dose 0.08 uM), 0.522 in assay [1] (dose 0.40 uM), 0.258 in assay [1] (dose 2.00 uM) and −1.721 in assay [1] (dose 10.00 uM). The Dose.FC.LYZ.S in assay [2] (dose 0.08 uM) is listed as 0.078 log2 fold change; in assay [2] (dose 0.40 uM), 0.229 log2 fold change; in assay [2] (dose 2.00 uM), −0.034 log2 fold change; in assay [2] (dose 10.00 uM), −0.283 log2 fold change. The Dose.FC.CTG in assay [3] (dose 0.08 uM) was 0.344 log2 fold change; in assay [3] (dose 0.40 uM), 0.119 log2 fold change; in assay [3] (dose 2.00 uM), −1.012 log2 fold change; in assay [3] (dose 10.00 uM), −1.396 log2 fold change.
As for `CC(C)C[C@@H](C(=O)N[C@H](C(=O)OC1CCCC1)c1ccccc1)[C@H](O)C(=O)NO` [Tosedostat (CHR2797)], the Dose.FC.LYZ.NS in assay [1] (dose 0.08 uM) was −0.002 log2 fold change; in assay [1] (dose 0.40 uM), −0.106 log2 fold change; in assay [1] (dose 2.00 uM), −0.050 log2 fold change; in assay [1] (dose 10.00 uM), −0.172 log2 fold change. The “Z.LYZ.NS (standard z score)” value is listed as −0.022 in assay [1] (dose 0.08 uM), −0.925 in assay [1] (dose 0.40 uM), −0.432 in assay [1] (dose 2.00 uM) and −1.499 in assay [1] (dose 10.00 uM). The Dose.FC.LYZ.S in assay [2] (dose 0.08 uM) is recorded as −0.027 log2 fold change; in assay [2] (dose 0.40 uM), −0.134 log2 fold change; in assay [2] (dose 2.00 uM) it was −0.128 log2 fold change; in assay [2] (dose 10.00 uM), −0.276 log2 fold change. Moreover, the SSMD.CTG in assay [3] (Table 5A primary screen, strictly standardized mean difference, four lines per treatment = four doses, dose not given) is −0.311. In addition, the Dose.FC.CTG is recorded as −0.097 log2 fold change in assay [3] (dose 0.08 uM), 0.051 log2 fold change in assay [3] (dose 0.40 uM), −0.201 log2 fold change in assay [3] (dose 2.00 uM) and −0.468 log2 fold change in assay [3] (dose 10.00 uM). In addition, the “Z.CTG (standard z score)” value in assay [3] (dose 0.08 uM) is −0.232; in assay [3] (dose 0.40 uM), 0.123; in assay [3] (dose 2.00 uM), −0.480; in assay [3] (dose 10.00 uM), −1.117.
On to `Cn1c(=O)cc(N2CCC[C@@H](N)C2)n(Cc2cc(F)ccc2C#N)c1=O` [Trelagliptin], for which the Dose.FC.LYZ.NS in assay [1] (dose 0.08 uM) is 0.007 log2 fold change; in assay [1] (dose 0.40 uM) it was −0.019 log2 fold change; in assay [1] (dose 2.00 uM), −0.033 log2 fold change; in assay [1] (dose 10.00 uM) it was −0.050 log2 fold change. For the same compound, the “Z.LYZ.NS (standard z score)” value in assay [1] (dose 0.08 uM) is on record as 0.059; in assay [1] (dose 0.40 uM), −0.166; in assay [1] (dose 2.00 uM), −0.292; in assay [1] (dose 10.00 uM) it was −0.433. Besides, the Dose.FC.LYZ.S in assay [2] (dose 0.08 uM) is listed as 0.020 log2 fold change; in assay [2] (dose 0.40 uM), 0.058 log2 fold change; in assay [2] (dose 2.00 uM), −0.022 log2 fold change; in assay [2] (dose 10.00 uM), −0.109 log2 fold change. Also, the Dose.FC.CTG in assay [3] (dose 0.08 uM) is listed as 0.202 log2 fold change; in assay [3] (dose 0.40 uM) it was −0.076 log2 fold change; in assay [3] (dose 2.00 uM), 0.050 log2 fold change; in assay [3] (dose 10.00 uM) it was 0.135 log2 fold change.
Regarding `Nc1nc(N)c2nc(-c3ccccc3)c(N)nc2n1` [Triamterene], the Dose.FC.LYZ.NS in assay [1] (dose 0.08 uM) is listed as 0.103 log2 fold change; in assay [1] (dose 0.40 uM) it was 0.030 log2 fold change; in assay [1] (dose 2.00 uM), −0.056 log2 fold change; in assay [1] (dose 10.00 uM), −0.187 log2 fold change. Moreover, the “Z.LYZ.NS (standard z score)” value is recorded as 0.894 in assay [1] (dose 0.08 uM), 0.266 in assay [1] (dose 0.40 uM), −0.490 in assay [1] (dose 2.00 uM) and −1.630 in assay [1] (dose 10.00 uM). In addition, the Dose.FC.LYZ.S in assay [2] (dose 0.08 uM) is given as 0.048 log2 fold change; in assay [2] (dose 0.40 uM), 0.051 log2 fold change; in assay [2] (dose 2.00 uM), −0.065 log2 fold change; in assay [2] (dose 10.00 uM) it was −0.290 log2 fold change. Further, the Dose.FC.CTG is given as −0.029 log2 fold change in assay [3] (dose 0.08 uM), −0.165 log2 fold change in assay [3] (dose 0.40 uM), −0.101 log2 fold change in assay [3] (dose 2.00 uM) and −0.462 log2 fold change in assay [3] (dose 10.00 uM).
For `CC(/C=C/C(=O)NO)=C\[C@@H](C)C(=O)c1ccc(N(C)C)cc1` [Trichostatin A (TSA)], the Dose.FC.LYZ.NS in assay [1] (dose 0.08 uM) is recorded as −0.064 log2 fold change; in assay [1] (dose 0.40 uM) it was −0.195 log2 fold change; in assay [1] (dose 2.00 uM) it was −0.153 log2 fold change; in assay [1] (dose 10.00 uM), −0.149 log2 fold change. The “Z.LYZ.NS (standard z score)” value in assay [1] (dose 0.08 uM) was −0.554; in assay [1] (dose 0.40 uM), −1.697; in assay [1] (dose 2.00 uM) it was −1.334; in assay [1] (dose 10.00 uM) it was −1.298. For the same compound, the Dose.FC.LYZ.S in assay [2] (dose 0.08 uM) was −0.124 log2 fold change; in assay [2] (dose 0.40 uM) it was −0.254 log2 fold change; in assay [2] (dose 2.00 uM) it was −0.210 log2 fold change; in assay [2] (dose 10.00 uM), −0.202 log2 fold change. Moreover, the Dose.FC.CTG in assay [3] (dose 0.08 uM) was 0.191 log2 fold change; in assay [3] (dose 0.40 uM), −0.801 log2 fold change; in assay [3] (dose 2.00 uM), −0.904 log2 fold change; in assay [3] (dose 10.00 uM) it was −0.826 log2 fold change. Besides, the “Z.CTG (standard z score)” value in assay [3] (dose 0.08 uM) was 0.457; in assay [3] (dose 0.40 uM), −1.913; in assay [3] (dose 2.00 uM), −2.159; in assay [3] (dose 10.00 uM), −1.974.
Consider `CCC(COC(=O)c1cc(OC)c(OC)c(OC)c1)(c1ccccc1)N(C)C` (stereo not drawn) [Trimebutine], for which the Dose.FC.LYZ.NS in assay [1] (dose 0.08 uM) is given as −0.014 log2 fold change; in assay [1] (dose 0.40 uM) it was −0.019 log2 fold change; in assay [1] (dose 2.00 uM), −0.202 log2 fold change; in assay [1] (dose 10.00 uM) it was −0.214 log2 fold change. Besides, the “Z.LYZ.NS (standard z score)” value in assay [1] (dose 0.08 uM) is given as −0.121; in assay [1] (dose 0.40 uM) it was −0.166; in assay [1] (dose 2.00 uM) it was −1.763; in assay [1] (dose 10.00 uM), −1.863. Moreover, the Dose.FC.LYZ.S in assay [2] (dose 0.08 uM) is listed as 0.000 log2 fold change; in assay [2] (dose 0.40 uM) it was 0.002 log2 fold change; in assay [2] (dose 2.00 uM), −0.277 log2 fold change; in assay [2] (dose 10.00 uM), −0.332 log2 fold change. For the same compound, the Dose.FC.CTG was 0.007 log2 fold change in assay [3] (dose 0.08 uM), −0.202 log2 fold change in assay [3] (dose 0.40 uM), −1.008 log2 fold change in assay [3] (dose 2.00 uM) and −1.066 log2 fold change in assay [3] (dose 10.00 uM).
